Converted amounts (≈) assume the structure as drawn.
What was measured:
[1] = Supersaturated levels of 17-AG in SIF pH 6.8 with PVP (DMSO stock diluted 1:100); format: physicochemical; conditions: for 17-AG Supersaturated Concentration: 37° C., average values
Description: Supersaturated levels of 17-AG was measured by adding 17-AG DMSO stock solutions (10, 50, 100, & 200 mg/ml) at a 1:100 dilution to SIF pH 6.8 solutions containing 0%, 0.5%, 1%, 2.5%, & 5% PVP (w/v). […] Solutions were stirred in a dissolution apparatus (Paddle speed 150 RPM, 37° C.), and aliquots of each solution were removed at 15, 30, 60, 120, 240, 360, & 1320 minute time points. Sample aliquots were filtered (0.45 uM PVDF), diluted in SIF/MeOH and measured in triplicate on UV spectrometer. Representative data are found in FIG. 25 and FIG. 26.

[2] = system: H1975, a non-small cell lung cancer cell line; experiment: H1975 mouse xenograph tumor model; format: in vivo, Nu/Nu mice; conditions: 5% DMSO, 75% NS, oral gavage every other day
Description: In the first study, H1975, a non-small cell lung cancer cell line which contains L858R and T790M mutations in EGFR, a client protein for HSP90 was utilized. 5-6 week old Nu/Nu mice were implanted with 10×10e6H1975 cells. Dosing commenced after implanted cells reached ˜150 mm3. Dosing was by oral gavage and the dosing schedule was every other day with vehicle (20% PGHS, 5% DMSO, 75% NS), and 75 mg/kg, and 100 mg/kg 17-AG in vehicle.

[3] = In vitro dissolution of amorphous solid dispersions in simulated intestinal fluid at 37° C.; format: physicochemical; conditions: SIF 37° C., t = 5 min
Description: […] To each vial was added simulated intestinal fluid (5 mL) and each was shaken at 37° C. […] The samples were then diluted in MeOH and tested using UV method for solution concentration.

[4] = Equilibrium solubility in SIF; format: physicochemical; conditions: simulated intestinal fluid (SIF), pH 6.8, fassgf or other biorelevant, thermodynamic from solid
Description: Solutions were placed at 37° C., and sample aliquots were removed at 24, 48, 72, & 96 hours. Sample aliquots were filtered (0.45 uM PVDF), diluted in SIF/MeOH and measured in triplicate on UV spectrometer.

[5] = system: H1650 lung adenocarcinoma cell line; experiment: H1650 mouse xenograph tumor model; format: in vivo, Nu/Nu mice; conditions: 50, 75 and 100 mg/kg 17-AG in 15% PVP, 5% EtOH, 80% PG, oral gavage every day
Description: In the second study, H1650 lung adenocarcinoma cell line which contains a mutant form of EGFR (Del E746-A750) was utilized. 5-6 week old Nu/Nu mice were implanted with 10×10e6H1650 cells. Dosing commenced after implanted cells reached ˜100 mm3. Dosing was by oral gavage and the dosing schedule was every day with vehicle (15% PVP, 5% EtOH, 80% PG), and 50 mg/kg, 75 mg/kg, and 100 mg/kg 17-AG in vehicle.

For `CO[C@H]1/C=C\C=C(/C)C(=O)NC2=CC(=O)C(N)=C(C[C@@H](C)C[C@H](OC)[C@H](O)[C@@H](C)/C=C(\C)[C@@H]1OC(N)=O)C2=O` [17-AG, 17-amino-geldanamycin], the “time at which 17-AG starts to precipitate out” value ([1]; 1.0 mg/ml solution in 5% PVP) was 120 min, the “17-AG Supersaturated Concentration” value ([1]; SIF pH 6.8, 0% PVP) was 0.5 mg/mL and the “17-AG Supersaturated Concentration” value ([1]; SIF pH 6.8, 0.5% PVP) was 0.6 mg/mL. The “17-AG Supersaturated Concentration” value ([1]; SIF pH 6.8, 1.0% PVP) was 0.7 mg/mL, the “increase of degree of supersaturation of 17-AG” value ([1]; SIF pH 6.8, 5% PVP vs 0% PVP) was about 2 fold and the “17-AG Supersaturated Concentration” value ([1]; SIF pH 6.8, 5.0% PVP) was 0.9 mg/mL. The “time at which 17-AG starts to precipitate and come out of solution” value ([1]; SIF without PVP) was “approximately 120 minutes”, the “reduction in tumor volume as compared to vehicle treated animals” value ([2]; 75 mg/kg 17-AG in 20% PGHS) was about 35% and the “reduction in tumor volume as compared to vehicle treated animals” value ([2]; 100 mg/kg 17-AG in 20% PGHS) was about 70%. For the same compound, the “Supersaturated concentration of analog/polymer dispersions in SIF at 37° C. (t = 5 min)” value ([3]; 12% load analog in PVP K-30 amorphous dispersion, target conc 2 mg/mL) was 0.712 mg/ml, the “Fold increase relative to equilibrium solubility” value ([3]; 12% load analog in PVP K-30 dispersion) was 200 x and the solubility ([4]; 37 °C) was 4 µg/mL (≈ 7.33 µM). The solubility thermodynamic ([4]; SIF, 37° C., read-out: Equilibrium solubility of 17-AG in SIF @ 37° C.) was 4 µg/mL (≈ 7.33 µM) and the “maximum reduction in tumor volume as compared to vehicle treated animals” value [5] was 62%.

Source: patent US8357676B2, “Ansamycin formulations and methods of use thereof” (Infinity Discovery, Inc., priority 2006, dated 2013)
